Literature values in patent publication US20030027804A1, “Therapeutic combinations for the treatment of hormone deficiencies” (priority 2001, published 2003).

Key:
[1] = in vivo
[2] = oral, sublingual or buccal 17-alkylated androgens
[3] = biological target: sex hormone binding globulin (SHBG), albumin (Homo sapiens, UniProt P02768); details: in men
[4] = test system: sex hormone binding globulin (SHBG), albumin; details: circulating in the blood
[5] = biological target: T1, sex hormone binding globulin (SHBG), albumin (Homo sapiens, UniProt P04278); details: in men
T1 sequence (P04278 30-402): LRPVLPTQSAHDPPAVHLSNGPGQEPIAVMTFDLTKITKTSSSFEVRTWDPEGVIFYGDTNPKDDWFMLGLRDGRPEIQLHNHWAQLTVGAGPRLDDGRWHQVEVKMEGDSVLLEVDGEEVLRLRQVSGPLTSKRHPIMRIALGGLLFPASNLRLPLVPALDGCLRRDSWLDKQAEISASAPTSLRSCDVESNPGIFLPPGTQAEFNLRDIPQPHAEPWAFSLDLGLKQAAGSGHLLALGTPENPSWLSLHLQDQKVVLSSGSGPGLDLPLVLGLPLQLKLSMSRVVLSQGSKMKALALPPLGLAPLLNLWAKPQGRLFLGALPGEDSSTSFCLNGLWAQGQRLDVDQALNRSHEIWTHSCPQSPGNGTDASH

[6] = oral

Sequence of sex hormone binding globulin (SHBG), albumin (Homo sapiens, UniProt P02768) (P02768 25-609): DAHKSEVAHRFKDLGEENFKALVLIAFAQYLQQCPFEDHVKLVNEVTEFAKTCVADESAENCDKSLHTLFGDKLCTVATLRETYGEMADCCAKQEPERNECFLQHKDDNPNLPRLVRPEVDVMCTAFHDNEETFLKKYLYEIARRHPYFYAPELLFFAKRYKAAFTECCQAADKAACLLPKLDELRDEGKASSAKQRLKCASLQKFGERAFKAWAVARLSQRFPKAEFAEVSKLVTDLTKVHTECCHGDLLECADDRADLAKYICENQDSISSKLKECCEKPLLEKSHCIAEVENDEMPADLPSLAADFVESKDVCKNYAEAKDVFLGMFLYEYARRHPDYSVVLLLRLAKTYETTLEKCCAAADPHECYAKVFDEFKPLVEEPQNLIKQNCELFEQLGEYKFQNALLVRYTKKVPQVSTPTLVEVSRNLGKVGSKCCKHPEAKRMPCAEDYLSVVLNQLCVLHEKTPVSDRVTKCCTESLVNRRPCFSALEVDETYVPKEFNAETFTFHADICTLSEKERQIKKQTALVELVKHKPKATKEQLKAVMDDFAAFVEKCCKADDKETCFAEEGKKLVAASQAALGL

C[C@]12CC[C@@H]3c4ccc(O)cc4CC[C@H]3[C@@H]1CC[C@@H]2O [estradiol, 1,3,5(10)-Estratriene-3,17 beta-diol]
serum levels of estradiol required for clinical efficacy [1]: 40 to 60 pg/mL

C[C@]1(O)CC[C@H]2[C@@H]3CCC4=CC(=O)CC[C@]4(C)[C@@]3(F)[C@@H](O)C[C@@]21C [fluoxymesterone]
liver toxicity [2]: associated with liver toxicity

C[C@]12CCC(=O)C=C1CC[C@@H]1[C@@H]2CC[C@@]2(C)[C@H]1CC[C@]2(C)O [methyl testosterone, 17 alpha-methyl-testosterone]
liver toxicity [2]: associated with liver toxicity

C[C@]12CC[C@H]3[C@@H](CCC4=CC(=O)CC[C@@]43C)[C@@H]1CC[C@@H]2O [testosterone]
share bound weakly to albumin [3]: 60% | testosterone in blood bound to protein [4]: 98% | share of binding to high-affinity SHBG [5]: approximately 40% | orally administered testosterone cleared by the liver in the first pass [6]: about 44%
